Starred links: 1 amine or outer side, 2 acyl side, 3 side chain; linkers in the order of their positions; H or OH if unused. Non-standard residues stand in square brackets, D forms with d. Residues, ends and D or L forms follow the SMILES beside them. X1 = O=C([C@H](Cc1ccc2c(c1)OC(F)(F)O2)N[*:1])[*:2]; Phe(4-CF3) = N[C@@H](Cc1ccc(C(F)(F)F)cc1)C(=O)O; X2 = N#CCc1ccc(C[C@H](N[*:1])C(=O)[*:2])cc1; Phe(4-CN) = N#Cc1ccc(C[C@H](N)C(=O)O)cc1
Target: PRMT5/MEP50 complex (Homo sapiens, UniProt O14744+Q9BQA1)
Test: Competitive fluorescence polarization assay against a tracer peptide binding to the PRMT5/MEP50 complex
Settings: competitive FP; for IC50: 200 nM PRMT5:MEP50 complex, 1 nM tracer peptide 50, 50 mM HEPES, 250 mM NaCl, 1 mM TCEP, 0.01% Tween 20, pH 8.0, 1 hour incubation, ex 485 nm / em 535 nm, four-parameter fit
From the text: Next, we used the method to perform a small SAR study on a peptide that we previously identified as an inhibitor of PRMT5 protein–protein interactions.[37] The peptide is derived from the PRMT5 binding protein RioK1 and contains a Phe that is important for high-affinity binding. We prepared a peptide with an Asp residue installed in its place, which was protected using the 2-phenylisopropyl group to avoid aspartimide formation during peptide extension that occurred while using the allyl group.[38] The batch was split, and each portion was reacted with a different Ar–Br to rapidly generate peptides with diverse Phe analogues (Figure 3C). The prepared peptides were then tested in a competitive fluorescence polarization assay against a tracer peptide binding to the PRMT5/MEP50 complex.[37] […]
h. Competitive Fluorescence Polarization assay
Evaluation of peptide 42-46 was performed similar to our previously described protocol.3 As tracer, we used peptide 50 from the same report. In brief, the peptides to be tested were serially diluted in buffer (50 mM HEPES, 250 mM NaCl, 1mM TCEP, and 0.01% (v/v) Tween 20, pH 8.0) in a black 384 wells plate in a total volume of 10 μl per well. Next, a mixture of PRMT5:MEP50 complex and tracer peptide 50 in the same buffer was added so that a final protein concentration of 200 nM and final tracer concentration of 1 nM was reached. The mixture was incubated for 1 hour and read on a Tecan Spark plate reader in fluorescence polarization mode set to an excitation wavelength of 485 nm and emission wavelength of 535 nm. Data was analyzed using Graphpad Prism version 9.2.0 and curves were fitted using nonlinear regression (log(inhibitor) vs. response – variable slope (four parameters)).

Sequence of PRMT5/MEP50 complex (O14744 whole entry, species assumed): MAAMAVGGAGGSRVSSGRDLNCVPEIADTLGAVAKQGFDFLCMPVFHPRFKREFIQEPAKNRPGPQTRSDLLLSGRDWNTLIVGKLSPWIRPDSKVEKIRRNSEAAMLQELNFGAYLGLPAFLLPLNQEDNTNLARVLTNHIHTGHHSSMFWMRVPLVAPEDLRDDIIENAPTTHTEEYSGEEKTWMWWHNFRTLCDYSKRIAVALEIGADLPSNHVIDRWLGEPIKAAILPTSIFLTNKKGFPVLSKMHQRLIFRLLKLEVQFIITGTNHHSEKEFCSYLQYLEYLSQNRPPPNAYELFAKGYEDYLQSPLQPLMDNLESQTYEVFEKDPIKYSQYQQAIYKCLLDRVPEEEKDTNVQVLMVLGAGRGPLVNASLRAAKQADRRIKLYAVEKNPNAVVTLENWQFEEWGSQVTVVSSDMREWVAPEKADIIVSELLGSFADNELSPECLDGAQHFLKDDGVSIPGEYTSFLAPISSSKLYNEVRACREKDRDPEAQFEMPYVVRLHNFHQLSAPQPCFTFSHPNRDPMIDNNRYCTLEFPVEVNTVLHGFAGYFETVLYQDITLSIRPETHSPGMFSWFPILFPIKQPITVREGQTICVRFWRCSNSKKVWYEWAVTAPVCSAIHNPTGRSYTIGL
Sequence of PRMT5/MEP50 complex (Q9BQA1 whole entry partner, species assumed): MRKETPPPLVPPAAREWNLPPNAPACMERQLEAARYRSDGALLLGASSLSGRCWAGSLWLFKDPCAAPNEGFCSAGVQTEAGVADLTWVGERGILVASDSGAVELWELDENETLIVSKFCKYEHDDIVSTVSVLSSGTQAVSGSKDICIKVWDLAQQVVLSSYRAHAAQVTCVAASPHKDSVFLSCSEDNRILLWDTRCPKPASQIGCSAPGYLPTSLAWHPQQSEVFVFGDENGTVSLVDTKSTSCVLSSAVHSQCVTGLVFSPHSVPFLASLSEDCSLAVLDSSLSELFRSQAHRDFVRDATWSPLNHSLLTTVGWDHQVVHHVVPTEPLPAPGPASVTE

Compound	fold improvement in IC50 in comparison to the wild-type peptide 46 (PRMT5/MEP50 complex, relative to peptide 46)	IC50
CC(=O)N[C@H](C(=O)N1CCC[C@H]1C(=O)NCC(=O)N[C@@H](CCC(N)=O)C(=O)N[C@@H](Cc1ccc(CC#N)cc1)C(=O)N[C@@H](CC(=O)O)C(=O)N[C@@H](CC(=O)O)C(=O)N[C@@H](C)C(=O)N[C@@H](CC(=O)O)C(N)=O)C(C)C [compound 43] (Ac-VPGQ[X2]DDAD-NH2)	–	14.6 ± 6.37 µM
CC(=O)N[C@H](C(=O)N1CCC[C@H]1C(=O)NCC(=O)N[C@@H](CCC(N)=O)C(=O)N[C@@H](Cc1ccc(C(F)(F)F)cc1)C(=O)N[C@@H](CC(=O)O)C(=O)N[C@@H](CC(=O)O)C(=O)N[C@@H](C)C(=O)N[C@@H](CC(=O)O)C(N)=O)C(C)C [compound 44] (Ac-VPGQ[Phe(4-CF3)]DDAD-NH2)	–	6.74 ± 3.23 µM
CC(=O)N[C@H](C(=O)N1CCC[C@H]1C(=O)NCC(=O)N[C@@H](CCC(N)=O)C(=O)N[C@@H](Cc1ccc2c(c1)OC(F)(F)O2)C(=O)N[C@@H](CC(=O)O)C(=O)N[C@@H](CC(=O)O)C(=O)N[C@@H](C)C(=O)N[C@@H](CC(=O)O)C(N)=O)C(C)C [compound 45] (Ac-VPGQ[X1]DDAD-NH2)	–	17.1 ± 8.05 µM

Now those with a lower IC50, led by results:

fold improvement in IC50 in comparison to the wild-type peptide 46 (PRMT5/MEP50 complex, relative to peptide 46)	IC50	Compound
3 fold	0.56 ± 0.15 µM	CC(=O)N[C@H](C(=O)N1CCC[C@H]1C(=O)NCC(=O)N[C@@H](CCC(N)=O)C(=O)N[C@@H](Cc1ccc(C#N)cc1)C(=O)N[C@@H](CC(=O)O)C(=O)N[C@@H](CC(=O)O)C(=O)N[C@@H](C)C(=O)N[C@@H](CC(=O)O)C(N)=O)C(C)C [compound 42] (Ac-VPGQ[Phe(4-CN)]DDAD-NH2)
–	1.71 ± 0.59 µM	Ac-VPGQFDDAD-NH2 [compound 46, reference compound]
